Results as given in US9375000B2, “Pesticidal arylpyrrolidines” (Bayer Intellectual Property GmbH, priority 2011, dated 2016).

How the values were obtained:
Format in all cases: in vivo
[1] = test system: Cucurbit Leaf Beetle (Aulacophora femoralis); experiment: Cucurbit leaf beetle (Aulacophora femoralis) cucumber leaf dip test; conditions: after 7 days
In short: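 Cucumber leaves dipped in compound formulated with DMF and polyoxyethylene alkyl phenyl ether, diluted in water, with ammonium salt or ammonium salt plus penetration enhancer at 1000 ppm added if necessary; dried leaves placed on sterilized soil with five second-instar larvae. Kept at 25° C; larval mortality counted after 7 days.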

[2] = test system: Tobacco Cutworm (Spodoptera litura) Larvae; experiment: Tobacco cutworm (Spodoptera litura) larvae, sweet potato leaf dip test; conditions: dead larvae after 7 days
Protocol: (§1) Unless not mentioned otherwise, the test solutions were prepared as follows:
(§2) Solvent: 3 parts by weight Dimethylformamide
(§3) Emulsifier: 1 part by weight Polyoxyethylene alkyl phenyl ether
(§4) In order to make an appropriate formulation of an active compound, 1 part by weight of the active compound is mixed with the above mentioned amount of solvent and emulsifier and the mixture is diluted with water to a prescribed concentration. Ammonium salt or ammonium salt and penetration enhancer in a dosage of 1000 ppm are added to the desired concentration if necessary.
Leaves of sweet potato were immersed in the test solution at the appropriate concentration, and the leaves were dried in air. The leaves were then placed in a petri dish having a diameter of 9 cm, and ten Spodoptera litura at third instar larvae were released therein. The petri dishes were placed in a temperature-controlled chamber at 25° C. After 2 days and 4 days more sweet potato leaves were added. After 7 days, the number of dead larvae was counted to calculate the insecticidal activity. An insecticidal activity of 100% means that all larvae were killed, whereas an insecticidal activity of 0% means that no larva was killed. In the current test, the results of two petri dishes for each treatment were averaged.

[3] = test system: Two-Spotted Spider Mite (Tetranychus urticae); experiment: Two-spotted spider mite (Tetranychus urticae) spray test on kidney bean; conditions: after 7 days
In short: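 Kidney bean plants at the two-leaf stage carried 50-100 adult mites and were sprayed one day later with compound in DMF/polyoxyethylene alkyl phenyl ether diluted in water. Ammonium salt and penetration enhancer at 1000 ppm were added if needed. Acaricidal activity (% mites killed) was scored after 7 days in a greenhouse.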

[4] = test system: Larvae of Spodoptera litura; experiment: Larvae of Spodoptera litura, method using artificial feeds; conditions: artificial feed, after 7 days
In short: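 Compound formulated in dimethylformamide with polyoxyethylene alkyl phenyl ether emulsifier, water-diluted and poured onto artificial diet. Five 3rd-instar Spodoptera litura larvae per cup, held at 25° C and 50-60% humidity. Mortality after 7 days expressed as pesticidal ratio.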

Thrips palmi = Thrips palmi spray test (THRIPL); conditions: after 6 days
Protocol: as §1, §2, §3, §4
The compound solutions are sprayed to a cucumber seedling (Cucumis sativus). After drying, the treated plant is placed in a plastic stand. About 100 thrips-eggs (Thrips palmi) on a piece of filter paper are attached to the plant and covered with a cage to keep 100% humidity. The plant is kept in a room at 23° C. After 6 days activity in % is evaluated by feeding damage degree. An insecticidal activity of 100 means that there was no feeding damage, whereas an insecticidal activity of 0% means that there is no difference to the untreated control.

[5] = active compound concentration 20 ppm
[6] = active compound concentration 4 ppm
[7] = active compound concentration 100 ppm

Structure (SMILES) | insecticidal activity [1, 5] | insecticidal activity [2, 6] | acaricidal activity [3, 6] | acaricidal activity [3, 5] | insecticidal activity (pesticidal ratio) [4, 5] | insecticidal activity (pesticidal ratio) [4, 6] | insecticidal activity [1, 6] | insecticidal activity (by feeding damage degree) (Thrips palmi; [5]) | also measured
O=C(NCc1ccc(N2CC(c3cc(Cl)c(Cl)c(Cl)c3)(C(F)(F)F)CC2O)nc1C(F)(F)F)C1CC1 (stereo not drawn) [A′3-16] | 100% | 100% |  |  |  |  |  |  | 
O=C(NCc1ccc(N2CCC(c3cc(F)c(F)c(F)c3)(C(F)(F)F)C2O)nc1C(F)(F)F)C1CC1 (mixture of isomers) [A3-192] | 100% | 100% |  |  |  |  |  |  | 
O=C(CC(F)(F)F)NCc1ccc(N2CCC(c3cc(Cl)cc(Cl)c3)(C(F)(F)F)C2O)cc1F (mixture of isomers) [A1-101] | 100% | 80% | 100% |  |  |  |  |  | 
O=C(NCc1ccc(N2CCC(c3cc(Cl)c(Cl)c(C(F)(F)F)c3)(C(F)(F)F)C2O)cc1C(F)(F)F)C1CC1 (stereo not drawn) [A1-352] | 100% | 100% |  | 100% |  |  |  |  | 
CC(=O)NCc1ccc(N2CCC(c3cc(Cl)c(F)c(Cl)c3)(C(F)(F)F)C2O)cc1C(F)(F)F (stereo not drawn) [A1-271] |  | 100% | 100% |  |  |  |  |  | 
O=C(NCc1ccc(N2CCC(c3cc(Cl)c(Cl)c(Cl)c3)(C(F)(F)F)C2=O)nc1C(F)(F)F)C1CC1 (stereo not drawn) [B3-16] |  |  |  |  | 100% |  |  |  | insecticidal activity [2, 5]: 100%
CCC(=O)NCc1ccc(N2CCC(c3cc(F)cc(Cl)c3)(C(F)(F)F)C2O)nc1C(F)(F)F (mixture of isomers) [A3-167] |  | 80% |  | 90% |  |  |  |  | 
CCC(=O)NCc1ccc(N2CCC(c3cc(Cl)c(Cl)c(Cl)c3)(C(F)(F)F)C2O)cc1CC (mixture of isomers) [A1-140] |  | 100% | 98% |  |  |  |  |  | 
O=C(NCc1ccc(N2CC(c3cc(C(F)(F)F)cc(C(F)(F)F)c3)(C(F)(F)F)CC2=O)nc1Cl)C1CC1 (stereo not drawn) [C1-27] | 100% |  |  |  | 100% |  |  |  | insecticidal activity [2, 5]: 100%
CC(=O)NCc1ccc(N2CCC(c3cc(Cl)cc(C(F)(F)F)c3)(C(F)(F)F)C2O)nc1C(F)(F)F (mixture of isomers) [A3-265] | 100% |  |  | 100% | 100% | 100% | 100% | 90% | 
CC(=O)NCc1cnc(N2CCC(c3cc(Cl)c(F)c(Cl)c3F)(C(F)(F)F)C2O)cc1C(F)(F)F (stereo not drawn) [A5-78] | 100% | 100% | 100% |  |  |  |  |  | 
CC(=O)NCc1ccc(N2CCC(c3cc(C(F)(F)F)cc(C(F)(F)F)c3)(C(F)(F)F)C2O)cc1Br (stereo not drawn) [A1-216] |  |  | 90% |  |  | 100% | 100% | 90% | 
CCC(=O)NCc1ccc(N2CCC(c3cc(Br)cc(Br)c3)(C(F)(F)F)C2O)cc1C(F)(F)F (stereo not drawn) [A1-250] | 100% |  | 100% | 100% | 100% | 100% | 100% | 90% | 
CC(=O)NCc1cnc(N2CCC(c3cc(Cl)c(F)c(Cl)c3F)(C(F)(F)F)C2O)nc1C(F)(F)F (stereo not drawn) [A4-111] | 100% | 100% | 100% |  |  |  |  |  | 
O=C(NCc1ccc(N2CCC(c3cc(F)cc(C(F)(F)F)c3)(C(F)(F)F)C2O)cc1C(F)(F)F)C1CC1 (stereo not drawn) [A1-319] | 100% |  | 100% | 100% | 100% | 100% | 100% | 90% | 
O=C(NCc1ccc(N2CC(c3cc(Cl)c(Cl)c(Cl)c3)(C(F)(F)F)CC2=O)nc1C(F)(F)F)C1CC1 (stereo not drawn) [C3-16] |  |  |  |  | 100% |  |  |  | insecticidal activity [2, 5]: 100%

Structure (SMILES) | insecticidal activity [1, 5] | insecticidal activity [2, 6] | acaricidal activity [3, 6] | acaricidal activity [3, 5] | insecticidal activity (pesticidal ratio) [4, 5] | insecticidal activity (pesticidal ratio) [4, 6] | insecticidal activity [1, 6] | insecticidal activity (by feeding damage degree) (Thrips palmi; [5]) | also measured
CC(=O)NCc1ccc(N2CCC(c3cc(Cl)c(F)c(Cl)c3F)(C(F)(F)F)C2O)nc1C(F)(F)F (mixture of isomers) [A3-210] | 100% | 100% | 100% |  |  |  |  |  | 
CCC(=O)NCc1cnc(N2CCC(c3cc(Cl)cc(Cl)c3)(C(F)(F)F)C2O)nc1C(F)(F)F (stereo not drawn) [A4-2] |  | 100% |  |  |  |  |  |  | 
CS(=O)(=O)CC(=O)NCc1cnc(N2CCC(c3cc(C(F)(F)F)cc(C(F)(F)F)c3)(C(F)(F)F)C2O)cc1C(F)(F)F (stereo not drawn) [A5-33] | 100% |  |  | 98% | 100% | 100% | 100% | 90% | 
CC(=O)NCc1ccc(N2CCC(c3cc(Cl)c(Cl)c(C(F)(F)F)c3)(C(F)(F)F)C2O)cc1C(F)(F)F (stereo not drawn) [A1-348] | 100% | 100% |  | 100% |  |  |  |  | 
O=C(NCc1cnc(N2CCC(c3cc(Cl)c(Cl)c(Cl)c3)(C(F)(F)F)C2O)nc1C(F)F)C1CC1 (stereo not drawn) [A4-219] |  |  | 100% |  |  | 100% | 100% | 90% | 
O=C(NCc1ccc(N2CCC(c3cc(C(F)(F)F)cc(C(F)(F)F)c3)(C(F)(F)F)C2=O)cc1Cl)C1CC1 (stereo not drawn) [B1-27] |  |  |  |  | 100% |  |  |  | insecticidal activity [2, 5]: 100%
CCC(=O)NCc1cc(F)c(N2CCC(c3cc(C(F)(F)F)cc(C(F)(F)F)c3)(C(F)(F)F)C2O)nc1Cl (stereo not drawn) [A3-378] |  |  |  |  |  | 100% | 100% |  | acaricidal activity [3, 7]: 98%; insecticidal activity (by feeding damage degree) (Thrips palmi; [7]): 90%
CCc1nc(N2CCC(c3cc(Cl)c(Cl)c(Cl)c3)(C(F)(F)F)C2O)ccc1CNC(=O)C1CC1 (stereo not drawn) [A3-93] | 100% | 100% |  | 100% |  |  |  |  | 
O=C(NCc1ccc(N2CCC(c3cc(Cl)cc(Cl)c3F)(C(F)(F)F)C2O)nc1C(F)(F)F)C1CC1 (stereo not drawn) [A3-348] |  |  | 100% |  |  | 100% | 100% | 90% | 
CCC(=O)NCc1ccc(N2CCC(c3cc(C(F)(F)F)cc(C(F)(F)F)c3)(C(F)(F)F)C2O)cc1CC (mixture of isomers) [A1-195] | 100% | 100% | 100% |  |  |  |  |  | 
CCC(=O)NCc1cnc(N2CCC(c3cc(C(F)(F)F)cc(C(F)(F)F)c3)(C(F)(F)F)C2O)cc1C(F)(F)F (stereo not drawn) [A5-24] | 100% |  |  | 100% | 100% | 100% | 100% | 90% | 
CC(=O)NCc1ccc(N2CCC(c3cc(C(F)(F)F)cc(C(F)(F)F)c3)(C(F)(F)F)C2O)cc1C(F)(F)F (mixture of isomers) [A1-56] |  |  | 100% |  |  | 100% | 100% | 98% | 
O=C(CC(F)(F)F)NCc1ccc(N2CCC(c3cc(Cl)c(Cl)c(Cl)c3)(C(F)(F)F)C2O)nc1C(F)(F)F (stereo not drawn) [A3-18] | 100% |  | 100% | 100% | 100% | 100% | 100% | 98% | 
O=C(CC(F)(F)F)NCc1cnc(N2CCC(c3cc(C(F)(F)F)cc(C(F)(F)F)c3)(C(F)(F)F)C2O)cc1C(F)(F)F (stereo not drawn) [A5-29] | 100% |  |  | 100% | 100% | 100% | 100% | 90% | 
CCC(=O)NCc1ccc(N2CCC(c3cc(F)c(F)c(F)c3)(C(F)(F)F)C2O)nc1C(F)(F)F (mixture of isomers) [A3-189] | 100% | 80% |  |  |  |  |  |  | 
